The values below come from patent US10851110B2, “Heterocyclic inhibitors of PTPN11” (priority 2016, dated 2020).

This data set has as its system BT474 human breast carcinomas cell line. The data set can be described thus: In Vivo Tumor Models: BT474 xenograft. The following applies: BT474 (HER2+) xenograft in CB-17/SCID mice, 100 mg/kg once per day oral gavage, 5 days on/2 days off, 4 weeks. The source says:
Xenografts were initiated with BT474 human breast carcinomas cell line and maintained by serial subcutaneous transplantation in CB-17/SCID mice (Charles River). On the day of tumor implant, each test mouse received a 1 mm^3 BT474 fragment implanted subcutaneously in the right flank, and tumor growth was monitored as the average size approached the target range of 100 to 150 mm3. About three weeks post-implantation, the animals were randomized and grouped based on tumor volume and mouse body weight. […] Tumors were measured in two dimensions using calipers, and volume was calculated using the formula: Tumor Volume (mm^3)=w^2×l/2.

Take `CC1(N)CCN(c2cnc3c(-c4cccc(Cl)c4Cl)n[nH]c3n2)CC1` [Example 1, 1-(3-(2,3-dichlorophenyl)-1H-pyrazolo[3,4-b]pyrazin-6-yl)-4-methylpiperidin-4-amine]: the “tolerability (body weight)” value is listed as “tolerated dose” and the tumor growth result was “significant suppression of tumor growth”.
